This note sets out measurements from patent US20240025906A1 (NEURON23, INC., priority 2022, published 2024).

Molecules are shown by their SMILES.

One assay has as its target T1, TYK2 JH2 (Homo sapiens, UniProt P29597).
T1 construct: purchased DiscoverX (KINOMEscan KdELECT service); host or cells: E. coli BL21-derived (T7 phage display) or HEK-293
The assay is described as follows: TYK2 JH2 binding assay (KINOMEscan KdELECT competitive binding). As to conditions: TYK2 JH2 domain, DiscoverX KINOMEscan KdELECT (Assay A); read-out: Biochemical TYK2_DiscoverX_JH2_BND_Kd. In a few lines:
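JH2-domain fragment, expressed as T7 phage tag in BL21-derived E. coli or DNA-tagged from HEK-293, competed with test compound against bead-immobilized biotinylated ligand in binding buffer (0.9% DMSO). 1 h shaking at room temperature; bound kinase eluted with 0.5 μM free ligand and quantified by qPCR. Kd from 11-point 3-fold dilutions.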

Assay [1] has as its system JAK1/TYK2 pSTAT5 (Tyr694/699) in THP-1 cell line. The assay is described as follows: IFNa-stimulated JAK1/TYK2 pSTAT5 (Tyr694/699) inhibition cellular assay, AlphaLISA. It is filed as cell-based. As to conditions: Homo sapiens; THP-1 cells, IFNa-stimulated, AlphaLISA (Assay B); read-out: Cellular_THP1_IFNa-pSTATS_TYK2. The method in brief:
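THP-1 cells (2e4/well) in HBSS preincubated 1 h at 37° C. with compound (final 10000–0.04 nM, 8 points, 6-fold), then stimulated with IFNa (100 ng/mL stock) for 30 min before lysis. pSTAT5 (Tyr694/699) read by AlphaLISA at 615 nm; IC50 from four-parameter logistic fit with bottom fixed at 0 and Hill slope at −1.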

T1 sequence (P29597 589-875 limits assumed): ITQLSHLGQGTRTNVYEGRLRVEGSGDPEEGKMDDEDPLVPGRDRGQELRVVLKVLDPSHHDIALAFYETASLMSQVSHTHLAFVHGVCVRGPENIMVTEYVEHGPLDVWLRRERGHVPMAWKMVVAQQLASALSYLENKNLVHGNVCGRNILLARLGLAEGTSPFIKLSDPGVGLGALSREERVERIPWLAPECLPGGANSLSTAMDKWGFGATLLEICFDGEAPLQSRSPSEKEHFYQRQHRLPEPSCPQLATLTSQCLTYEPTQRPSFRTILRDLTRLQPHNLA

Turning to `CNc1ncc(-c2nc3cc(OCC[S+](C)[O-])ccc3o2)c2cc(NC(=O)C3CC3)ncc12` (stereo not drawn) [Example 353, N-(8-(methylamino)-5-(5-(2-(methylsulfinyl)ethoxy)benzo[d]oxazol-2-yl)-2,7-naphthyridin-3-yl)cyclopropanecarboxamide], the Kd at TYK2 JH2 is at most 100 nM. For the same compound, the IC50 in assay [1] is at most 500 nM.
With `CNc1ncc(-c2nc3cc(OCCS(C)(=O)=O)ccc3o2)c2cc(NC(=O)C3CC3)ncc12` [Example 354, N-(8-(methylamino)-5-(5-(2-(methylsulfonyl)ethoxy)benzo[d]oxazol-2-yl)-2,7-naphthyridin-3-yl)cyclopropanecarboxamide], the Kd on TYK2 JH2 is at most 100 nM. Moreover, in assay [1], the IC50 was at most 500 nM.
The corresponding values for `CNc1ncc(-c2nc3ccc(N4CCOCC4)cc3o2)c2cc(NC(=O)C3CC3)ncc12` [Example 355, N-(8-(methylamino)-5-(6-morpholinobenzo[d]oxazol-2-yl)-2,7-naphthyridin-3-yl)cyclopropanecarboxamide] are at most 100 nM and at most 500 nM.
The corresponding values for `CNc1ncc(-c2nc3cnccc3o2)c2cc(NC(=O)C3CC3)ncc12` [Example 356, N-(8-(methylamino)-5-(oxazolo[4,5-c]pyridin-2-yl)-2,7-naphthyridin-3-yl)cyclopropanecarboxamide] are at most 100 nM and at most 500 nM.
`CNc1ncc(-c2nc3ccncc3o2)c2cc(NC(=O)C3CC3)ncc12` [Example 357, N-(8-(methylamino)-5-(oxazolo[5,4-c]pyridin-2-yl)-2,7-naphthyridin-3-yl)cyclopropanecarboxamide]: the Kd at TYK2 JH2 was at most 100 nM. Besides, the IC50 in assay [1] was above 500 nM.
The corresponding values for `CNc1ncc(-c2nc3ncccc3o2)c2cc(NC(=O)C3CC3)ncc12` [Example 358, N-(8-(methylamino)-5-(oxazolo[4,5-b]pyridin-2-yl)-2,7-naphthyridin-3-yl)cyclopropanecarboxamide] are at most 100 nM and at most 500 nM.
The corresponding values for `CNc1ncc(-c2nc3cc(C4CCNCC4)ccc3o2)c2cc(NC(=O)C3CC3)ncc12` [Example 359, N-(8-(methylamino)-5-(5-(piperidin-4-yl)benzo[d]oxazol-2-yl)-2,7-naphthyridin-3-yl)cyclopropanecarboxamide 2,2,2-trifluoroacetate] are at most 100 nM and at most 500 nM.
The corresponding values for `CNc1ncc(-c2nc3cc(C4CCN(C5COC5)CC4)ccc3o2)c2cc(NC(=O)C3CC3)ncc12` [Example 360, N-(8-(methylamino)-5-(5-(1-(oxetan-3-yl)piperidin-4-yl)benzo[d]oxazol-2-yl)-2,7-naphthyridin-3-yl)cyclopropanecarboxamide] are at most 100 nM and at most 500 nM.
Take `CNc1ncc(-c2nc3cc(C4CCN(C)CC4)ccc3o2)c2cc(NC(=O)C3CC3)ncc12` [Example 361, N-(8-(methylamino)-5-(5-(1-methylpiperidin-4-yl)benzo[d]oxazol-2-yl)-2,7-naphthyridin-3-yl)cyclopropanecarboxamide]: the Kd at TYK2 JH2 is at most 100 nM. In assay [1], the IC50 was at most 500 nM.
For `[2H]C([2H])([2H])Nc1ncc(-c2nc3cc(OC)ccc3o2)c2cc(NC(=O)C3CC3)ncc12` [Example 362, N-(5-(5-methoxybenzo[d]oxazol-2-yl)-8-((methyl-d3)amino)-2,7-naphthyridin-3-yl)cyclopropanecarboxamide], at TYK2 JH2, the Kd is at most 100 nM. Moreover, in assay [1], the IC50 was at most 500 nM.
The corresponding values for `[2H]C([2H])([2H])Nc1ncc(-c2nc3c(OC)cccc3o2)c2cc(NC(=O)C3CC3)ncc12` [Example 363, N-(5-(4-methoxybenzo[d]oxazol-2-yl)-8-((methyl-d3)amino)-2,7-naphthyridin-3-yl)cyclopropanecarboxamide] are at most 100 nM and at most 500 nM.
The corresponding values for `[2H]C([2H])([2H])Nc1ncc(-c2nc3cc(N4CCOCC4)ccc3o2)c2cc(NC(=O)C3CC3)ncc12` [Example 364, N-(8-((methyl-d3)amino)-5-(5-morpholinobenzo[d]oxazol-2-yl)-2,7-naphthyridin-3-yl)cyclopropanecarboxamide] are at most 100 nM and at most 500 nM.
The corresponding values for `[2H]C([2H])([2H])Nc1ncc(-c2nc3cc(OC([2H])([2H])[2H])ccc3o2)c2cc(NC(=O)C3CC3)ncc12` [Example 365, N-(5-(5-(methoxy-d3)benzo[d]oxazol-2-yl)-8-((methyl-d3)amino)-2,7-naphthyridin-3-yl)cyclopropanecarboxamide] are at most 100 nM and at most 500 nM.
With `CCNc1ncc(-c2nc3cc(N4CCO[C@@H](C)C4)ccc3o2)c2cc(NC(=O)C3CC3)ncc12` [Example 366, (S)—N-(8-(ethylamino)-5-(5-(2-methylmorpholino)benzo[d]oxazol-2-yl)-2,7-naphthyridin-3-yl)cyclopropanecarboxamide], on TYK2 JH2, the Kd is at most 100 nM. In addition, the IC50 in assay [1] was at most 500 nM.
The corresponding values for `COc1ccc2oc(-c3cnc(NC4CC4)c4cnc(NC(=O)C5CC5)cc34)nc2c1` [Example 367, N-(8-(cyclopropylamino)-5-(5-methoxybenzo[d]oxazol-2-yl)-2,7-naphthyridin-3-yl)cyclopropanecarboxamide] are at most 100 nM and at most 500 nM.
`C[C@H]1CN(c2ccc3oc(-c4cnc(N)c5cnc(NC(=O)C6CC6)cc45)nc3c2)CCO1` [Example 368, (S)—N-(8-amino-5-(5-(2-methylmorpholino)benzo[d]oxazol-2-yl)-2,7-naphthyridin-3-yl)cyclopropanecarboxamide]: the Kd on TYK2 JH2 was at most 100 nM. The IC50 in assay [1] is at most 500 nM.
The corresponding values for `COc1ccc2oc(-c3cnc(N)c4cnc(NC(=O)C5CC5)cc34)nc2c1` [Example 369, N-(8-amino-5-(5-methoxybenzo[d]oxazol-2-yl)-2,7-naphthyridin-3-yl)cyclopropanecarboxamide] are at most 100 nM and at most 500 nM.
The corresponding values for `COc1ccc2oc(-c3cnc(NCC(F)F)c4cnc(NC(=O)C5CC5)cc34)nc2c1` [Example 370, N-(8-((2,2-difluoroethyl)amino)-5-(5-methoxybenzo[d]oxazol-2-yl)-2,7-naphthyridin-3-yl)cyclopropanecarboxamide] are at most 100 nM and at most 500 nM.
The corresponding values for `O=C(Nc1cc2c(-c3nc4ccccc4o3)cnc(O)c2cn1)C1CC1` [Example 371, N-(5-(benzo[d]oxazol-2-yl)-8-hydroxy-2,7-naphthyridin-3-yl)cyclopropanecarboxamide] are at most 100 nM and above 500 nM.
As to `CNc1ncc(-c2nc3cc(OC)ccc3o2)c2cc(Nc3ccccn3)ncc12` [Example 372, 4-(5-methoxybenzo[d]oxazol-2-yl)-N^1-methyl-N^6-(pyridin-2-yl)-2,7-naphthyridine-1,6-diamine], at TYK2 JH2, the Kd is at most 100 nM. Moreover, in assay [1], the IC50 is at most 500 nM.
The corresponding values for `CNc1ncc(-c2nc3cc(OC)ccc3o2)c2cc(Nc3ccc(F)cn3)ncc12` [Example 374, N^6-(5-fluoropyridin-2-y1)-4-(5-methoxybenzo[d]oxazol-2-yl)-N^1-methyl-2,7-naphthyridine-1,6-diamine] are at most 100 nM and above 500 nM.
Take `CNc1ncc(-c2nc3cc(OC)ccc3o2)c2cc(Nc3ccc(C(C)(C)O)cn3)ncc12` [Example 375, 2-(6-((5-(5-methoxybenzo[d]oxazol-2-y1)-8-(methylamino)-2,7-naphthyridin-3-yl)amino)pyridin-3-yl)propan-2-ol]: at TYK2 JH2, the Kd was at most 100 nM. Besides, in assay [1], the IC50 was at most 500 nM.
The corresponding values for `CNc1ncc(-c2nc3cc(OC)ccc3o2)c2cc(Nc3cc(C)n(C)n3)ncc12` [Example 376, N^6-(1,5-dimethyl-1H-pyrazol-3-yl)-4-(5-methoxybenzo[d]oxazol-2-yl)-N^1-methyl-2,7-naphthyridine-1,6-diamine] are at most 100 nM and at most 500 nM.
The corresponding values for `CNc1ncc(-c2nc3cc(OC)ccc3o2)c2cc(Nc3cc(C)nc(C)n3)ncc12` [Example 377, N^6-(2,6-dimethylpyrimidin-4-yl)-4-(5-methoxybenzo[d]oxazol-2-yl)-N^1-methyl-2,7-naphthyridine-1,6-diamine] are at most 100 nM and at most 500 nM.
The corresponding values for `CNc1ncc(-c2nc3cc(OC)ccc3o2)c2cc(Nc3ccc(OC)cn3)ncc12` [Example 378, 4-(5-methoxybenzo[d]oxazol-2-yl)-N^6-(5-methoxypyridin-2-yl)-N^1-methyl-2,7-naphthyridine-1,6-diamine] are at most 100 nM and at most 500 nM.
Regarding `CNc1ncc(-c2nc3cc(OC)ccc3o2)c2cc(Nc3cccc(OC)n3)ncc12` [Example 379, 4-(5-methoxybenzo[d]oxazol-2-yl)-N^6-(6-methoxypyridin-2-yl)-N^1.methyl-2,7-naphthyridine-1,6-diamine], the Kd at TYK2 JH2 is at most 100 nM. For the same compound, the IC50 in assay [1] is at most 500 nM.
The corresponding values for `CNc1ncc(-c2nc3cc(OC)ccc3o2)c2cc(Nc3ccc(N4CCOCC4)cn3)ncc12` [Example 380, 4-(5-methoxybenzo[d]oxazol-2-yl)-N^1-methyl-N^6-(5-morpholinopyridin-2-yl)-2,7-naphthyridine-1,6-diamine] are at most 100 nM and at most 500 nM.
